In patent US20100234372A1, “SUBSTITUTED 2-MERCAPTOQUINOLINE-3-CARBOXAMIDES AS KCNQ2/3 MODULATORS” (GRUNENTHAL GMBH, priority 2009, published 2010) one finds EC50 and Emax data, which are given here for 45 compounds.

The assay deals with T1, KCNQ2/3 channels (Homo sapiens, UniProt O43525+O43526).
T1 construct: expressed in transfected cells; host or cells: CHO-K1 cells
In words: Fluorescence assay using a voltage-sensitive dye (fluorimetry). It counts as cell-based. The settings on record: for EC50: CHO-K1 cells expressing KCNQ2/3 channels; for Emax at 1 µM: 50 μM retigabine = 100%, CHO-K1 cells expressing KCNQ2/3, read-out: Fluorimetry % efficacy at 1 μM (50 μM retigabine = 100%). On the procedure:
[…] CHO-K1 cells expressing KCNQ2/3 channels are cultivated adherently at 37° C., 5% CO2 and 95% humidity in cell culture bottles (e.g. 80 cm^2 TC flasks, Nunc) with DMEM-high glucose (Sigma Aldrich, D7777) including 10% FCS (PAN Biotech, e.g. 3302-P270521) or alternatively MEM Alpha Medium (1×, liquid, Invitrogen, #22571), 10% foetal calf serum (FCS) (Invitrogen, #10270-106, heat-inactivated) and the necessary selection antibiotics.
Before being seeded out for the measurements, the cells are washed with a 1×DPBS buffer without Ca^2+/Mg^2+ (e.g. Invitrogen, #14190-094) and detached from the bottom of the culture vessel by means of Accutase (PAA Laboratories, #L11-007) (incubation with Accutase for 15 min at 37° C.). The cell count then present is determined using a CASY™ cell counter (TCC model, Scharfe System) in order subsequently to apply 20,000 to 30,000 cells/well/100 μl of the described nutrient medium, depending on density optimisation for the individual cell line, to 96-well measuring plates of the Corning™ CeIIBIND™ type (flat clear-bottom black polystyrene microplates, #3340). Incubation is then carried out for one hour at room temperature, without gassing or adjusting the humidity, followed by incubation for 24 hours at 37° C., 5% CO2 and 95% humidity.
The voltage-sensitive fluorescent dye from the Membrane Potential Assay Kit (Red™ bulk format part R8123 for FLIPR, MDS Analytical Technologies™) is prepared by dissolving the contents of a vessel of Membrane Potential Assay Kit Red Component A in 200 ml of extracellular buffer (ES buffer, 120 mM NaCl, 1 mM KCl, 10 mM HEPES, 2 mM CaCl2, 2 mM MgCl2, 10 mM glucose; pH 7.4). After removal of the nutrient medium, the cells are washed with 200 μl of ES buffer, then covered with a layer of 100 μl of the dye solution prepared above and incubated for 45 min at room temperature with exclusion of light.
The fluorescence measurements are carried out with a BMG Labtech FLUOstar™, BMG Labtech NOVOstar™ or BMG Labtech POLARstar™ instrument (525 nm excitation, 560 nm emission, bottom-read mode). After incubation of the dye, 50 μl of the substances to be tested in the desired concentrations, or 50 μl of ES buffer for control purposes, are introduced into separate cavities of the measuring plate and incubated for 30 min at room temperature whilst being shielded from light. The fluorescence intensity of the dye is then measured for 5 min and the fluorescence value F1 of each well is thus determined at a given, constant time. 15 μl of a […] KCl solution ([…]) are then added to each well. The change in fluorescence is subsequently measured until all relevant measured values have been obtained (mainly 5-30 min). At a given time after KCl application, a fluorescence value F2 is determined, in this case at the time of the fluorescence peak.
For calculation, the fluorescence intensity F2 is compared with the fluorescence intensity F1, and the agonistic activity of the target compound on the potassium channel is determined therefrom. F2 and F1 are calculated as follows: […]
is determined by adding to the reaction batch only the buffer solution instead of the substance to be tested, determining the value F1K of the fluorescence intensity, adding the potassium ions as described above and measuring a value F2K of the fluorescence intensity. Then F2K and F1K are calculated as follows: […]
Calculations of EC50 values are carried out with the aid of Prism v4.0 software (GraphPad Software™).

As usually defined, the EC50 is the midpoint of the concentration-response curve. Low values mean a more potent agent, high ones a less potent agent. Take `CCCCCSc1nc2cc(C(F)(F)F)ccc2c(C)c1C(=O)NCc1cccc(F)c1` [compound 50]: a half-maximal effect (EC50) was put at 0.061 µM and the Emax at 1 µM amounted to 150%.

Regarding `CCC(C)Sc1nc2cc(C(F)(F)F)ccc2c(C)c1C(=O)NCc1cccc(F)c1` (centres unmarked) [compound 51], the concentration giving a half-maximal response (EC50) stood at 0.037 µM and the Emax at 1 µM is 158%.

For the compound `Cc1c(C(=O)NCc2cccc(F)c2)c(SC2CCCCC2)nc2cc(C(F)(F)F)ccc12` [compound 52], the EC50 turned out to be 0.064 µM and the Emax at 1 µM was found to be 102%.

Regarding `CCSc1nc2cc(C(F)(F)F)ccc2c(C)c1C(=O)NCCC1CCCC1` [compound 53], the midpoint of the response, the EC50, lay at 0.256 µM and the Emax at 1 µM came to 73%.

Take `CCSc1nc2cc(C(F)(F)F)ccc2c(C)c1C(=O)NCCCC1CCCC1` [compound 54]: the EC50 is 0.162 µM and the Emax at 1 µM turned out to be 229%.

As for `CCSc1nc2cc(C(F)(F)F)ccc2c(C)c1C(=O)NCc1ccc(C(F)(F)F)cc1` [compound 55], the response was half-maximal at 0.149 µM (EC50) and the Emax at 1 µM came out at 167%.

With `CCSc1nc2cc(C(F)(F)F)ccc2c(C)c1C(=O)NCc1cccc(C(C)(C)C)c1` [compound 56], the EC50 was 0.067 µM and the Emax at 1 µM worked out at 97%.

Regarding `CCSc1nc2cc(C(F)(F)F)ccc2c(C)c1C(=O)NCCCC(C)C` [compound 57], the response was half-maximal at 0.15 µM (EC50) and the Emax at 1 µM turned out to be 205%.

Regarding `CCSc1nc2cc(C(F)(F)F)ccc2c(C)c1C(=O)NCc1ccc(C)s1` [compound 69], the midpoint of the response, the EC50, lay at 0.858 µM and the Emax at 1 µM is 123%.

As to `CCSc1nc2cc(C(F)(F)F)ccc2c(C)c1C(=O)NCc1cc(C)cs1` [compound 70], the half-maximal effective concentration (EC50) was 1.46 µM and the Emax at 1 µM was determined as 114%.

Consider `CCSc1nc2cc(C(F)(F)F)ccc2c(C)c1C(=O)NCc1ccc(Cl)s1` [compound 71], for which the half-maximal effective concentration (EC50) amounted to 0.305 µM and the Emax at 1 µM stood at 163%.

Consider `CCSc1nc2cc(C(F)(F)F)ccc2c(C)c1C(=O)NCCc1cccs1` [compound 72], for which the EC50 is 0.732 µM and the Emax at 1 µM amounted to 59%.

On to `CCSc1nc2cc(C(F)(F)F)ccc2c(C)c1C(=O)NCC1CC2CCC1C2` (centres unmarked) [compound 73], for which the Emax at 1 µM stood at 25%.

Turning to `CCSc1nc2cc(C(F)(F)F)ccc2c(C)c1C(=O)NCc1ccccc1` [compound 74], the EC50 was found to be 0.163 µM and the Emax at 1 µM was determined as 128%.

Regarding `CCSc1nc2cc(C(F)(F)F)ccc2c(C)c1C(=O)NCc1ccccc1F` [compound 75], a half-maximal response (EC50) required 0.071 µM and the Emax at 1 µM was found to be 88%.

In the case of `CCSc1nc2cc(C(F)(F)F)ccc2c(C)c1C(=O)NCc1ccccc1Cl` [compound 78], the Emax at 1 µM came out at 33%.

For `CCSc1nc2cc(C(F)(F)F)ccc2c(C)c1C(=O)NCc1cccc(Cl)c1` [compound 79], the response was half-maximal at 0.124 µM (EC50) and the Emax at 1 µM is 116%.

Regarding `CCSc1nc2cc(C(F)(F)F)ccc2c(C)c1C(=O)NCc1ccc(Cl)cc1` [compound 80], the EC50 was found to be 0.148 µM and the Emax at 1 µM came to 135%.

With `CCSc1nc2cc(C(F)(F)F)ccc2c(C)c1C(=O)NCc1ccccc1C` [compound 81], the Emax at 1 µM was 28%.

Take `CCSc1nc2cc(C(F)(F)F)ccc2c(C)c1C(=O)NCc1cccc(C)c1` [compound 82]: the EC50 was 0.219 µM and the Emax at 1 µM was 108%.

Turning to `CCSc1nc2cc(C(F)(F)F)ccc2c(C)c1C(=O)NCc1ccc(C)cc1` [compound 83], a half-maximal effect (EC50) was put at 0.242 µM and the Emax at 1 µM is 130%.

`CCSc1nc2cc(C(F)(F)F)ccc2c(C)c1C(=O)NCc1ccccc1OC` [compound 84]: the Emax at 1 µM came to 25%.

For the compound `CCSc1nc2cc(C(F)(F)F)ccc2c(C)c1C(=O)NCc1cccc(OC)c1` [compound 85], the EC50 came to 0.413 µM and the Emax at 1 µM is 89%.

Take `CCSc1nc2cc(C(F)(F)F)ccc2c(C)c1C(=O)NCc1ccc(OC)cc1` [compound 86]: the concentration for a half-maximal effect (EC50) is 0.565 µM and the Emax at 1 µM was 108%.

With `CCSc1nc2cc(C(F)(F)F)ccc2c(C)c1C(=O)NCc1cc(F)cc(F)c1` [compound 87], the 50% effective concentration (EC50) amounted to 0.144 µM and the Emax at 1 µM was determined as 159%.

Take `CSc1nc2cc(C(F)(F)F)ccc2c(C)c1C(=O)NCc1cccs1` [compound 88]: the concentration giving a half-maximal response (EC50) is 0.212 µM and the Emax at 1 µM is 154%.

`CCSc1nc2cc(C(F)(F)F)ccc2cc1C(=O)NCC(C)(C)C` [compound 90]: the concentration giving a half-maximal response (EC50) came out at 0.842 µM and the Emax at 1 µM is 53%.

Regarding `CCSc1nc2ccccc2c(C)c1C(=O)NCc1cccs1` [compound 91], the EC50 amounted to 1.21 µM and the Emax at 1 µM is 50%.

Regarding `CCSc1nc2ccccc2c(C)c1C(=O)NCc1cccc(F)c1` [compound 92], it took 0.95 µM to reach a half-maximal effect (EC50) and the Emax at 1 µM turned out to be 65%.

`Cc1c(C(=O)NCc2cccc(F)c2)c(SC(C)(C)C)nc2cc(C(F)(F)F)ccc12` [compound 93]: the EC50 worked out at 0.088 µM and the Emax at 1 µM amounted to 157%.

`CCSc1nc2cc(C(C)(C)C)ccc2c(C)c1C(=O)NCc1cccc(F)c1` [compound 95]: it took 0.627 µM to reach a half-maximal effect (EC50) and the Emax at 1 µM stood at 96%.

`CCSc1nc2cc(C(C)(C)C)ccc2c(C)c1C(=O)NCc1ccc(F)cc1` [compound 96]: the EC50 amounted to 0.808 µM and the Emax at 1 µM stood at 101%.

With `CCSc1nc2cc(OC)ccc2c(C)c1C(=O)NCc1cccc(F)c1` [compound 97], it took 0.622 µM to reach a half-maximal effect (EC50) and the Emax at 1 µM came out at 60%.

`CCSc1nc2cc(OC)ccc2c(C)c1C(=O)NCc1ccc(F)cc1` [compound 98]: the response was half-maximal at 0.404 µM (EC50) and the Emax at 1 µM was determined as 70%.

In the case of `CCSc1nc2ccc(C)cc2c(C)c1C(=O)NCc1cccc(F)c1` [compound 99], the EC50 stood at 0.623 µM and the Emax at 1 µM came to 90%.

In the case of `CCSc1nc2ccc(C)cc2c(C)c1C(=O)NCc1ccc(F)cc1` [compound 100], the concentration for a half-maximal effect (EC50) stood at 0.337 µM and the Emax at 1 µM was 45%.

Take `CCSc1nc2ccc(OC)cc2c(C)c1C(=O)NCc1cccc(F)c1` [compound 101]: the Emax at 1 µM was determined as 17%.

`CCSc1nc2ccc(OC)cc2c(C)c1C(=O)NCc1ccc(F)cc1` [compound 102]: the Emax at 1 µM stood at 14%.

With `CCSc1nc2ccc(C(F)(F)F)cc2c(C)c1C(=O)NCc1cccc(F)c1` [compound 103], the EC50 was found to be 0.784 µM and the Emax at 1 µM was determined as 115%.

Turning to `CCSc1nc2ccc(C(F)(F)F)cc2c(C)c1C(=O)NCc1ccc(F)cc1` [compound 104], the Emax at 1 µM was found to be 25%.

In the case of `CCSc1nc2cc(F)ccc2c(C)c1C(=O)NCc1cccc(F)c1` [compound 105], the EC50 was found to be 0.248 µM and the Emax at 1 µM came to 140%.

Turning to `CCSc1nc2cc(F)ccc2c(C)c1C(=O)NCc1ccc(F)cc1` [compound 106], a half-maximal effect (EC50) was put at 0.216 µM and the Emax at 1 µM was found to be 143%.

For the compound `CCSc1nc2cc(C)ccc2c(C)c1C(=O)NCc1cccc(F)c1` [compound 107], it took 0.499 µM to reach a half-maximal effect (EC50) and the Emax at 1 µM worked out at 161%.

Regarding `CCSc1nc2cc(C)ccc2c(C)c1C(=O)NCc1ccc(F)cc1` [compound 108], it took 0.509 µM to reach a half-maximal effect (EC50) and the Emax at 1 µM amounted to 149%.

For `CCSc1nc2cc(C(F)(F)F)ccc2c(C)c1C(=O)NCc1ccco1` [compound 110], the response was half-maximal at 0.089 µM (EC50) and the Emax at 1 µM turned out to be 183%.
